Experimental data: publication doi:10.1101/2025.02.11.637513v1 (bioRxiv, 2025)
Non-standard residues stand in square brackets, D forms with d. No end group written: not given here. *: point of attachment. 1Nal = N[C@@H](Cc1cccc2ccccc12)C(=O)O; 2Nal = N[C@@H](Cc1ccc2ccccc2c1)C(=O)O; Met(O2) = CS(=O)(=O)CC[C@H](N)C(=O)O; Hyp = O=C(O)[C@@H]1C[C@@H](O)CN1; Phg = N[C@H](C(=O)O)c1ccccc1; Tle = CC(C)(C)[C@H](N)C(=O)O; Abu = CC[C@H](N)C(=O)O; Bn = c1ccc(C*)cc1

Experiments:
Test in all cases: tetrapeptide-ACC substrate cleavage kinetics
Format in all cases: biochemical
[1] = biological target: T1, human caspase-1 (Homo sapiens, UniProt P29466); conditions: Ac-P4-P3-P2-Asp-ACC substrate, 0.05-500 μM, 2-15 nM enzyme, 37°C, triplicate
T1 sequence (P29466 120-297 limits assumed): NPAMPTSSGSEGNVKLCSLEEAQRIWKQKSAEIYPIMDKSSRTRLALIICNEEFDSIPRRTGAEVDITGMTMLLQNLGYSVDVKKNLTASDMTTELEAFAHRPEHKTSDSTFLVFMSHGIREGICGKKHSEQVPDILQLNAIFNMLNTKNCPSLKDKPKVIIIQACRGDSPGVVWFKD
T1 sequence (P29466 317-404 limits assumed): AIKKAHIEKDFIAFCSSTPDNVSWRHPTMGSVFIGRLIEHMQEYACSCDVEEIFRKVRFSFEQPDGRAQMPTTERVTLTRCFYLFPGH

[2] = biological target: T2, human caspase-4 (Homo sapiens, UniProt P49662); conditions: Ac-P4-P3-P2-Asp-ACC substrate, 0.05-500 μM, 35-200 nM enzyme, 37°C, triplicate
T2 sequence (P49662 81-270 limits assumed): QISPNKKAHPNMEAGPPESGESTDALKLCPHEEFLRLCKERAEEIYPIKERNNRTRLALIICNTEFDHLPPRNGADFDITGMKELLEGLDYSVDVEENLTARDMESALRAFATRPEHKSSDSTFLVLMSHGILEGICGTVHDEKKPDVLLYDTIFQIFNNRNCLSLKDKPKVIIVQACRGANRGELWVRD
T2 sequence (P49662 290-377 limits assumed): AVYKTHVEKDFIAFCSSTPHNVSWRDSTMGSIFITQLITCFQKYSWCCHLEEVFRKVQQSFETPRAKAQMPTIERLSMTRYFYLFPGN

[3] = biological target: T3, human caspase-5 (Homo sapiens, UniProt P51878); conditions: Ac-P4-P3-P2-Asp-ACC substrate, 0.05-500 μM, 20-250 nM enzyme, 37°C, triplicate
T3 sequence (P51878 137-327 limits assumed): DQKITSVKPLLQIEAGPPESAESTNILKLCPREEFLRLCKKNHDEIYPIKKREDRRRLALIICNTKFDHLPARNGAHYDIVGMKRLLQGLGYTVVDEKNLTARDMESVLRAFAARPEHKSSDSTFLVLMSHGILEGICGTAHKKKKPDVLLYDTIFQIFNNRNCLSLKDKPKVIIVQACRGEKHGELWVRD
T3 sequence (P51878 347-434 limits assumed): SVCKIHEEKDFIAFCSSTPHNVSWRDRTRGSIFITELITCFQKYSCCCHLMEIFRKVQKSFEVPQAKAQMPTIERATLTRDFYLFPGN

[4] = biological target: T4, human caspase-3 (Homo sapiens, UniProt P42574); conditions: Ac-P4-P3-P2-Asp-ACC substrate, 0.05-500 μM, 3-35 nM enzyme, 37°C, triplicate
T4 sequence (P42574 29-175 limits assumed): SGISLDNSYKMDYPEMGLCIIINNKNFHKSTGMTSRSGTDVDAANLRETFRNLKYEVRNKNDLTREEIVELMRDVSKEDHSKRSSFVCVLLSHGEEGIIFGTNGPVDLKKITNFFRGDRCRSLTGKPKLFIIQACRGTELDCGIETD
T4 sequence (P42574 176-277 limits assumed): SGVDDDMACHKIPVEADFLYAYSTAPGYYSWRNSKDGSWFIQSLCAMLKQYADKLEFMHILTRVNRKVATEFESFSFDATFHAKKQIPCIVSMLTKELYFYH

[5] = biological target: T5, human caspase-7 (Homo sapiens, UniProt P55210); conditions: Ac-P4-P3-P2-Asp-ACC substrate, 0.05-500 μM, 40-400 nM enzyme, 37°C, triplicate
T5 sequence (P55210 24-198 limits assumed): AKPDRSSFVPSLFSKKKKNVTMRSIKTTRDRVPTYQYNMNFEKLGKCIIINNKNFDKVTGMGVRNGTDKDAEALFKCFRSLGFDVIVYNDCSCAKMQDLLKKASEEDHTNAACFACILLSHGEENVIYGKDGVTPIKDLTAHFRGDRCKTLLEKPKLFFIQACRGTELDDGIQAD
T5 sequence (P55210 207-303 limits assumed): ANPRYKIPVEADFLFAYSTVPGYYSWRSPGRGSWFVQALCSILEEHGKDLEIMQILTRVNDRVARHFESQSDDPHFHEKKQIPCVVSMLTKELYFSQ

[6] = biological target: human caspase-8 (Homo sapiens, UniProt Q14790); conditions: Ac-P4-P3-P2-Asp-ACC substrate, 0.05-500 μM, 6-42 nM enzyme, 37°C, triplicate
Sequence of human caspase-8 (Q14790 217-374 limits assumed): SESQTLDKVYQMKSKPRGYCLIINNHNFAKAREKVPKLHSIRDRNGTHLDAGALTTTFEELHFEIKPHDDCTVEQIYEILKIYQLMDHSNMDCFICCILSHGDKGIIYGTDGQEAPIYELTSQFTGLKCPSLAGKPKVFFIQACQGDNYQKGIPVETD
Sequence of human caspase-8 (Q14790 385-479 limits assumed): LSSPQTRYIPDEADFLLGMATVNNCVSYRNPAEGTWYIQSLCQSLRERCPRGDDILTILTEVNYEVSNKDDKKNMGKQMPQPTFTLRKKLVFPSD

[7] = biological target: T6, human caspase-9 (Homo sapiens, UniProt P55211); conditions: Ac-P4-P3-P2-Asp-ACC substrate, 0.05-500 μM, 20-150 nM enzyme, 37°C, triplicate
T6 sequence (P55211 1-315 limits assumed): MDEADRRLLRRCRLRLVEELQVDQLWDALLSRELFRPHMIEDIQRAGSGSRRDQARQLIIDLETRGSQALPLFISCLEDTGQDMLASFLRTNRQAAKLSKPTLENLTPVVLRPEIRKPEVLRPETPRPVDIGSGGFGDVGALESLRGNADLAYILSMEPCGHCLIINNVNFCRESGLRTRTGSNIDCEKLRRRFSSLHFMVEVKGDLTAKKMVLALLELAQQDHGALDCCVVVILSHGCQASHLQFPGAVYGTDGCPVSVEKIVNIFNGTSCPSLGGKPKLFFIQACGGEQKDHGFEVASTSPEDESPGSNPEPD
T6 sequence (P55211 331-416 limits assumed): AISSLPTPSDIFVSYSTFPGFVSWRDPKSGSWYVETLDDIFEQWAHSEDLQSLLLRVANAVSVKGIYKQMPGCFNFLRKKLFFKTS

Substance | kcat/KM caspase-1 [1] | kcat/KM caspase-4 [2] | kcat/KM caspase-5 [3] | kcat/KM caspase-3 [4] | kcat/KM caspase-7 [5] | kcat/KM caspase-8 [6] | kcat/KM caspase-9 [7]
Val-Asp-His-Asp | 6 950 M^-1s^-1 | 880 M⁻¹ s⁻¹ | 4 830 M^-1s^-1 | 19 860 M^-1s^-1 | 910 M⁻¹ s⁻¹ | 16 670 M^-1s^-1 | 6 220 M^-1s^-1
Thr-Trp-His-Asp | 4 500 M^-1s^-1 | 450 M⁻¹ s⁻¹ | 600 M⁻¹ s⁻¹ | 26 990 M^-1s^-1 | 710 M⁻¹ s⁻¹ | 1 100 M^-1s^-1 | 4 810 M^-1s^-1
V[Hyp](Bn)HD | < 10 M⁻¹ s⁻¹ | < 10 M⁻¹ s⁻¹ | < 10 M⁻¹ s⁻¹ | 510 M⁻¹ s⁻¹ | 10 M⁻¹ s⁻¹ | 3 260 M^-1s^-1 | 660 M⁻¹ s⁻¹
Tyr-Gln-2Aoc-Asp |  | 1 100 M^-1s^-1 | 2 860 M^-1s^-1 | 2 580 M^-1s^-1 | 190 M⁻¹ s⁻¹ | 4 970 M^-1s^-1 | 310 M⁻¹ s⁻¹
Phe(2Cl)-Glu-Pip-Asp |  | 9 760 M^-1s^-1 | 1 830 M^-1s^-1 | 103 000 M^-1s^-1 | 10 730 M^-1s^-1 | 11 430 M^-1s^-1 | 2 300 M^-1s^-1
Tle-hGlu-Thr(Bzl)-Asp | 12 400 M^-1s^-1 | 2 130 M^-1s^-1 | 5 750 M^-1s^-1 | 179 800 M^-1s^-1 | 17 430 M^-1s^-1 | 125 800 M^-1s^-1 | 7 820 M^-1s^-1
Pro-Tyr-His-Asp | 10 900 M^-1s^-1 | 330 M⁻¹ s⁻¹ | 1 110 M^-1s^-1 | 2 110 M^-1s^-1 | 90 M⁻¹ s⁻¹ | 4 490 M^-1s^-1 | 11 080 M^-1s^-1
W[Met(O2)]HD | 547 600 M^-1s^-1 | 9 620 M^-1s^-1 | 15 430 M^-1s^-1 | 4 970 M^-1s^-1 | 60 M⁻¹ s⁻¹ | 2 380 M^-1s^-1 | 6 700 M^-1s^-1
Tle-Bpa-His(Bzl)-Asp | 25 300 M^-1s^-1 | 4 390 M^-1s^-1 | 2 650 M^-1s^-1 | 23 360 M^-1s^-1 | 100 M⁻¹ s⁻¹ | 6 400 M^-1s^-1 | 4 210 M^-1s^-1
VY(Bn)HD | 7 300 M^-1s^-1 | 350 M⁻¹ s⁻¹ | 660 M⁻¹ s⁻¹ | 6 900 M^-1s^-1 | 180 M⁻¹ s⁻¹ | 2 610 M^-1s^-1 | 1 790 M^-1s^-1
Pro-Met-His-Asp | 13 200 M^-1s^-1 | 460 M⁻¹ s⁻¹ | 130 M⁻¹ s⁻¹ | 3 160 M^-1s^-1 | 100 M⁻¹ s⁻¹ | 3 570 M^-1s^-1 | 13 000 M^-1s^-1
Asp-Glu-Val-Asp | 280 M⁻¹ s⁻¹ | 260 M⁻¹ s⁻¹ | 180 M⁻¹ s⁻¹ |  | 85 000 M^-1s^-1 | 73 200 M^-1s^-1 | 280 M⁻¹ s⁻¹
[1Nal]Q[Abu]D | 168 100 M^-1s^-1 | 2 190 M^-1s^-1 | 4 640 M^-1s^-1 | 1 660 M^-1s^-1 | 220 M⁻¹ s⁻¹ | 4 420 M^-1s^-1 | 100 M⁻¹ s⁻¹
Trp-Lys-Gln-Asp | 41 600 M^-1s^-1 | 320 M⁻¹ s⁻¹ | 160 M⁻¹ s⁻¹ | < 10 M⁻¹ s⁻¹ | < 10 M⁻¹ s⁻¹ | 30 M⁻¹ s⁻¹ | 10 M⁻¹ s⁻¹
[2Nal]THD | 146 200 M^-1s^-1 | 2 450 M^-1s^-1 | 7 860 M^-1s^-1 | 830 M⁻¹ s⁻¹ | 70 M⁻¹ s⁻¹ | 1 990 M^-1s^-1 | 5 660 M^-1s^-1
Phe-Glu-Ala-Asp | 57 100 M^-1s^-1 | 870 M⁻¹ s⁻¹ | 6 720 M^-1s^-1 | 1 550 M^-1s^-1 | 180 M⁻¹ s⁻¹ | 3 890 M^-1s^-1 | 530 M⁻¹ s⁻¹
[Tle][Phg]HD | 4 300 M^-1s^-1 | 320 M⁻¹ s⁻¹ | 490 M⁻¹ s⁻¹ | 6 710 M^-1s^-1 | 40 M⁻¹ s⁻¹ | 2 030 M^-1s^-1 | 9 870 M^-1s^-1
WT(Bn)HD | 644 300 M^-1s^-1 | 6 010 M^-1s^-1 | 10 640 M^-1s^-1 | 2 760 M^-1s^-1 | 120 M⁻¹ s⁻¹ | 8 230 M^-1s^-1 | 11 220 M^-1s^-1
Tyr-Glu-Lys-Asp | 39 500 M^-1s^-1 | 750 M⁻¹ s⁻¹ | 3 430 M^-1s^-1 | 580 M⁻¹ s⁻¹ | 80 M⁻¹ s⁻¹ | 2 720 M^-1s^-1 | 130 M⁻¹ s⁻¹
Glu(Ochx)-Bip-His(Bzl)-Asp | < 10 M⁻¹ s⁻¹ | < 10 M⁻¹ s⁻¹ | < 10 M⁻¹ s⁻¹ | < 10 M⁻¹ s⁻¹ | 20 M⁻¹ s⁻¹ | 110 M⁻¹ s⁻¹ | 40 M⁻¹ s⁻¹
Val-Tyr(2,6Cl2Bzl)-His-Asp | < 10 M⁻¹ s⁻¹ | 100 M⁻¹ s⁻¹ |  | 3 400 M^-1s^-1 | 80 M⁻¹ s⁻¹ | 750 M⁻¹ s⁻¹ | 480 M⁻¹ s⁻¹
